Where two headings read alike, the source gives them in different places.
Tests used:
[1] = system: BC-1 cells; assay: 3-day MTS cell viability assay, BC-1; type: cell-based; conditions: Homo sapiens, BC1, 72 hours, Fig 1C
Procedure: (§1) All cancer cell lines (HT-29: colorectal adenocarcinoma, HCT-116: colorectal carcinoma, A549: lung epithelial carcinoma, PC3: prostate adenocarcinoma, Jurkat: acute T-cell leukemia, BC-1: primary effusion lymphoma) and the normal human embryonal lung fibroblast cell line MRC-5 were acquired from the American Type Culture Collection (ATCC). All cell lines were cultured as recommended by the suppliers. Culture media were purchased from Gibco (Thermo Fisher Scientific) and supplemented with 10 to 20% fetal bovine serum (HyClone, GE Healthcare Life Sciences) and 20–25 μg/mL gentamicin (Gibco, Thermo Fisher Scientific). […]
(§2) Cell viability in cancer cell lines treated with compound was measured in a 3-day MTS cell proliferation assay using the CellTiter 96 AQueous Non-Radioactive Cell Proliferation Assay reagent (Promega) according to the manufacturer’s instructions. Absorbance was read at 490 nm on a SaFire II microplate reader (Tecan). CC50 values were calculated by fitting the obtained MTS cell viability data in GraphPad Prism using a 4-parameter log–based fit for inhibitors. Apoptosis induction and cell death upon compound treatment in PBMC was measured using the Alexa Fluor 488 Annexin V/Dead Cell Apoptosis Kit (Thermo Fisher Scientific), with readout on a FACSCanto II flow cytometer (BD Biosciences). […] The compounds were evaluated in duplo in two independent experiments.

[2] = system: HCT-116 cells; assay: 3-day MTS cell viability assay, HCT-116; type: cell-based; conditions: Homo sapiens, 72 hours, Fig 1C
Procedure: as §1, §2

[3] = system: microtubule network in A549 cells; assay: Immunofluorescence staining of alpha-tubulin in A549 cells; type: cell-based, human; conditions: 4 hours, 250 nM
Procedure: Non-small cell lung carcinoma A549 cells were seeded at 50,000 cells/well in an 8-well Nunc™ Lab-Tek™ chambered coverglass slide. After overnight incubation, they were treated with compound or carrier (DMSO) for 4 hours and then fixed with 4% PFA, washed and permeabilized (0.2% Triton X-100 in PBS). Further treatment was performed according to standard immunofluorescence procedures, employing 10% normal goat serum (Thermo Fisher Scientific) as blocking medium and as antibody diluent. Employed antibodies were mouse anti-alpha tubulin (sc-5286, Santa Cruz Biotechnology) at 1:300 dilution and secondary goat anti-mouse IgG conjugated to Alexa Fluor® 488 (A11001, Invitrogen, Thermo Fisher Scientific). Cell nuclei were counterstained with DAPI. Images were collected with a Leica TCS SP5 confocal microscope employing a HCX PL APO 63x (NA 1.2) water immersion objective.

[4] = system: primary cortical neurons; assay: Neurite outgrowth assay; type: cell-based, Sprague-Dawley rat; conditions: Primary cortical neuron, rat primary cortical neurons, 72 hours
Procedure: Neurite outgrowth assay was performed by Fluofarma (Pessac, France). Primary cortical neurons were harvested from E19 Sprague-Dawley (Janvier Labs) rat embryos, dissociated and plated at 10,000 per well in a tissue-culture treated 96 well plate, in neuronal medium (SM2 matrix independent growth medium, Stem Cell Technologies). Neurons were followed by phase contrast imaging with 1 image acquired every 4 hours, using an Incucyte Zoom (Essen BioScience) with a 20x objective. Four fields per well were acquired. After 24 hours, cells were treated with test compounds and neurite outgrowth was followed for 72 hours post-treatment. All measures were performed in triplicate in one experiment.
Neurite outgrowth kinetics were analyzed from each phase contrast image using the Neurotrack module of the Incucyte Zoom platform. Neurite length and branch points were obtained for each time point. The area under the curve (AUC) was calculated in each experimental condition (GraphPad Prism 6, GraphPad Software).

[5] = system: RPMI-8226; assay: NCI60 5-dose screen, RPMI-8226; type: cell-based; conditions: Homo sapiens, leukemia, Fig 1D, read-out: Log10 GI50 (RPMI-8226) (converted)
Procedure: (§3) The screening methodology used in the NCI60 Cell 5-Doses screen is described in detail at https://dtp.cancer.gov/discovery_development/nci-60/methodology.htm. Briefly, cells are seeded in 96 well plates at an appropriate density and incubated for 1 day. After 1 day, some of the plates are processed to determine a time zero density. To the remaining plates, compounds are added over a 5-log M concentration range (1 log dilutions from 10^-4M to 10^-8M). Plates are incubated for two additional days, then fixed and stained with sulforhodamine B. Growth inhibition is calculated relative to cells without drug treatment and the time zero control. The GI50 is the concentration of a compound that causes 50% growth inhibition, relative to the no drug control.

[6] = system: A549/ATCC; assay: NCI60 5-dose screen, A549/ATCC; type: cell-based; conditions: Homo sapiens, non-small cell lung cancer, Fig 1D, read-out: Log10 GI50 (A549/ATCC) (converted)
Procedure: as §3

[7] = system: SF-295; assay: NCI60 5-dose screen, SF-295; type: cell-based; conditions: Homo sapiens, CNS cancer, Fig 1D, read-out: Log10 GI50 (SF-295) (converted)
Procedure: as §3

[8] = system: SNB-75; assay: NCI60 5-dose screen, SNB-75; type: cell-based; conditions: Homo sapiens, CNS cancer, Fig 1D, read-out: Log10 GI50 (SNB-75) (converted)
Procedure: as §3

[9] = system: MDA-MB-435; assay: NCI60 5-dose screen, MDA-MB-435; type: cell-based; conditions: Homo sapiens, melanoma, Fig 1D, read-out: Log10 GI50 (MDA-MB-435) (converted)
Procedure: as §3

[10] = system: A498; assay: NCI60 5-dose screen, A498; type: cell-based; conditions: Homo sapiens, renal cancer, Fig 1D, read-out: Log10 GI50 (A498) (converted)
Procedure: as §3

[11] = system: ACHN; assay: NCI60 5-dose screen, ACHN; type: cell-based; conditions: Homo sapiens, renal cancer, Fig 1D, read-out: Log10 GI50 (ACHN) (converted)
Procedure: as §3

[12] = system: SN12C; assay: NCI60 5-dose screen, SN12C; type: cell-based; conditions: Homo sapiens, renal cancer, Fig 1D, read-out: Log10 GI50 (SN12C) (converted)
Procedure: as §3

[13] = system: TK-10; assay: NCI60 5-dose screen, TK-10; type: cell-based; conditions: Homo sapiens, renal cancer, Fig 1D, read-out: Log10 GI50 (TK-10) (converted)
Procedure: as §3

[14] = system: BT-549; assay: NCI60 5-dose screen, BT-549; type: cell-based; conditions: Homo sapiens, breast cancer, Fig 1D, read-out: Log10 GI50 (BT-549) (converted)
Procedure: as §3

[15] = read-out: IC50 for branch point formation
[16] = read-out: IC50 for neurite length

Compound	IC50 [1]	IC50 [2]	effect on microtubule network [3]	IC50 [4, 15]	IC50 [4, 16]	GI50 [5]	GI50 [6]	GI50 [7]	GI50 [8]	GI50 [9]	GI50 [10]	GI50 [11]	GI50 [12]	GI50 [13]	GI50 [14]
Cc1cc(C)cc(Nc2ccc([N+](=O)[O-])c(NCCN3CCOCC3)n2)c1 [Compound 4AZA2891, 6-(3,5-dimethylanilino)-2-(2-morpholinoethylamino)-3-nitropyridine]	8.5 nM	17.4 nM	disintegrate the microtubule network	8 nM	10 nM	36.3 nM	20 nM	< 10 nM	< 10 nM	< 10 nM	< 10 nM	12 nM	70.8 nM	12900 nM	58.9 nM
Cc1ccnc(Nc2ccc([N+](=O)[O-])c(NCCN3CCOCC3)n2)c1 [Compound 4AZA2996, N^6-(4-methylpyridin-2-yl)-N^2-(2-morpholinoethyl)-3-nitropyridine-2,6-diamine]	5.9 nM	10 nM	disintegrate the microtubule network	7.4 nM	9.5 nM	26.9 nM	< 10 nM	< 10 nM	< 10 nM	< 10 nM	< 10 nM	< 10 nM	47.9 nM	18600 nM	19.1 nM

Reference: publication PMC11542830, “3-nitropyridine analogues as novel microtubule-targeting agents” (PLOS ONE, 2024)
